Assay: Chemical stability of drug in the aqueous suspension against autoclaving (recovery rate by HPLC)
Type: physicochemical
Procedure: Comparison of Chemical Stability of Drug in the Aqueous Suspension Against Autoclaving
The suspension of Example 1 was put into a 500 mL glass container with a screw cap and sterilized by autoclaving at 121 degrees C. for 20 minutes. Subsequently, after mixing the suspension in the glass container, the ciclesonide concentration was quantified by HPLC.
The recovery rate of ciclesonide after the autoclaving was calculated by taking the ciclesonide concentration before the autoclaving to be 100%. The recovery rates of budesonide and beclomethasone dipropionate after the autoclaving were calculated by the same method.

Compound | Degradation by autoclaving procedure
CC(C)C(=O)OCC(=O)[C@@]12O[C@H](C3CCCCC3)O[C@@H]1C[C@H]1[C@@H]3CCC4=CC(=O)C=C[C@]4(C)[C@H]3[C@@H](O)C[C@@]12C [ciclesonide, (11β,16α)-16,17-[cyclohexylmethylenebis(oxy)]-11-hydroxy-21-(2-methyl-1-oxopropoxy)pregna-1,4,-diene-3,20-dione] | not degraded
CCCC1O[C@@H]2C[C@H]3[C@@H]4CCC5=CC(=O)C=C[C@]5(C)[C@H]4[C@@H](O)C[C@]3(C)[C@]2(C(=O)CO)O1 (stereo partly drawn) [budesonide, 16α,17-[(1RS)-butylidene-bis(oxy)]-11β,21-dihydroxypregna-1,4-diene-3,20-dione] | degraded

Reference: patent US20060166953A1, “Ciclesonide-containing sterile aqueous suspension” (priority 2002, published 2006)
